This note sets out measurements from PubChem BioAssay (NCI).

Several values for one entry are separate records, joined by “and”; a condition that tells them apart may be missing. Equal values may be shown once.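 Exposure lasted 48 hours, with cells grown in 96-well plates and compounds tested at five concentrations. Here, GI50 denotes the concentration required for 50% inhibition of growth. Definition used: TGI = concentration required for complete inhibition of growth.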 Some results are limits rather than exact numbers.

Among the test systems are NCI-H522 lung; DU-145 prostate; A549 NSCLC; NCI-H23 lung; NCI/ADR-RES ovarian; IGROV1 ovarian; MOLT-4 leukemia; U251 CNS; OVCAR-4 ovarian; LOX IMVI melanoma.
What all share (experiment): NCI anticancer screen, dose series, 48 h

For `CC1=NN=C(C)C1N=Nc1ccc2nc(C)[nH]c2c1`, the TGI in the assay on NCI-H522 lung is over 100 µM; with DU-145 prostate it was over 100 µM; in the assay with A549 NSCLC, over 100 µM; with NCI-H23 lung, over 100 µM; in the assay on NCI/ADR-RES ovarian it was over 100 µM; with IGROV1 ovarian, 29.7 µM. The TGI in the assay with MOLT-4 leukemia was over 85.9 µM; in the assay with U251 CNS, over 100 µM; in the assay with OVCAR-4 ovarian, over 100 µM; with LOX IMVI melanoma it was over 63.9 µM.
With `CCOC(=O)C(NC(=O)OCc1ccccc1)C(=O)O` (configuration not stated), the TGI in the assay on NCI-H522 lung, in the assay on DU-145 prostate, in the assay with A549 NSCLC, in the assay with NCI-H23 lung, with NCI/ADR-RES ovarian and in the assay with IGROV1 ovarian was over 100 µM each time. Besides, the TGI in the assay with MOLT-4 leukemia, in the assay on U251 CNS, in the assay with OVCAR-4 ovarian and in the assay on LOX IMVI melanoma was over 100 µM in each case.
For the molecule `O=C1CN(c2ccccc2)Cc2nc(Cl)ccc2N1`, the TGI with NCI-H522 lung, with DU-145 prostate, with A549 NSCLC, in the assay on NCI/ADR-RES ovarian, in the assay on IGROV1 ovarian and with MOLT-4 leukemia was over 100 µM throughout. The TGI with U251 CNS, in the assay with OVCAR-4 ovarian and in the assay with LOX IMVI melanoma was over 100 µM in each case.
Regarding `O=C(O)c1nc2ccccc2nc1Nc1ccc(Cl)c(Cl)c1`, the TGI in the assay on NCI-H522 lung was 60.1 µM; in the assay with DU-145 prostate, over 100 µM; with A549 NSCLC, over 100 µM; with NCI-H23 lung it was 50.1 µM; in the assay with NCI/ADR-RES ovarian, over 100 µM; in the assay on IGROV1 ovarian, over 100 µM. In addition, the TGI in the assay with MOLT-4 leukemia, in the assay with U251 CNS and in the assay on LOX IMVI melanoma was over 100 µM throughout.
Consider `CC(C)=CCCC(C)(OC1OC(CO)C(O)C(O)C1O)C1CCC2(C)C1C(O)CC1C3(C)CCC(O)C(C)(C)C3C(OC3OC(CO)C(O)C(O)C3OC3OC(C)C(O)C(O)C3O)CC12C` (configuration not stated) (tested in a mixture with another compound), for which the TGI in the assay with NCI-H522 lung, in the assay with DU-145 prostate, with A549 NSCLC, in the assay with NCI-H23 lung, with NCI/ADR-RES ovarian and with IGROV1 ovarian was over 75 µM in each case. Moreover, the TGI in the assay on MOLT-4 leukemia, with U251 CNS, with OVCAR-4 ovarian and in the assay with LOX IMVI melanoma was over 75 µM throughout.
On to `CSc1ncnc2c1cnn2Cc1cnnn1COCC(O)CO` (configuration not stated), for which the TGI with NCI-H522 lung was 29 µM; with DU-145 prostate it was over 100 µM; in the assay on A549 NSCLC, over 100 µM; in the assay with NCI-H23 lung, over 100 µM; in the assay with NCI/ADR-RES ovarian, over 100 µM; in the assay on IGROV1 ovarian, over 100 µM. Also, the TGI with MOLT-4 leukemia, with U251 CNS, with OVCAR-4 ovarian and with LOX IMVI melanoma was over 100 µM each time.
Consider `CC1=CC(=O)CC2(C)CCC(C(C)CC(=O)CC(C)C)CC12OO` (configuration not stated), for which the GI50 with NCI-H522 lung is 4.8 µM and 12.6 µM. The TGI with NCI-H522 lung was 19.5 µM and 26.9 µM; in the assay with DU-145 prostate, 32.3 µM and 29.5 µM; in the assay on A549 NSCLC, 30 µM and 31.1 µM; in the assay on NCI-H23 lung, 39.8 µM and 54.9 µM; in the assay with NCI/ADR-RES ovarian it was 56.6 µM and 81.2 µM; with IGROV1 ovarian, 46.6 µM and 31 µM. Moreover, the TGI is 40.2 µM and 35.3 µM in the assay on MOLT-4 leukemia; 31.4 µM and 33.1 µM in the assay on U251 CNS; 29.8 µM and > 100 µM in the assay on OVCAR-4 ovarian; 31.5 µM and 27.9 µM with LOX IMVI melanoma.
Consider `O=C1NC2NC3NC(=O)NC3NC2N1` (configuration not stated), for which the TGI with NCI-H522 lung, with DU-145 prostate, in the assay with A549 NSCLC, with NCI-H23 lung, with NCI/ADR-RES ovarian and with IGROV1 ovarian was over 100 µM throughout. Further, the TGI with MOLT-4 leukemia, with U251 CNS and in the assay with LOX IMVI melanoma was over 100 µM each time.
For the molecule `CC(C)/C=C1\CCC(CN(C)C)C1=O` (configuration not stated), the TGI in the assay with NCI-H522 lung came to 0.22 µM; with DU-145 prostate, 3.21 µM; with A549 NSCLC it was 17.2 µM; in the assay with NCI-H23 lung, 25.4 µM; with NCI/ADR-RES ovarian, 10.6 µM; in the assay on IGROV1 ovarian, 11.4 µM. The TGI with MOLT-4 leukemia amounted to 3.48 µM; in the assay on U251 CNS, 32.7 µM; in the assay on OVCAR-4 ovarian it was 30.8 µM; in the assay with LOX IMVI melanoma, 11.9 µM.
As to `CC(CSC(=N)N)C(N)=O` (configuration not stated), the TGI with NCI-H522 lung, in the assay with DU-145 prostate, in the assay on A549 NSCLC, with NCI-H23 lung, with NCI/ADR-RES ovarian and in the assay on IGROV1 ovarian was over 100 µM throughout. Moreover, the TGI in the assay with U251 CNS, in the assay on OVCAR-4 ovarian and with LOX IMVI melanoma was over 100 µM throughout.
For the molecule `O=C(NCCN1CCCCC1)c1ccc(Br)cc1`, the TGI in the assay with NCI-H522 lung, in the assay on DU-145 prostate, in the assay on A549 NSCLC, in the assay on NCI-H23 lung, in the assay with NCI/ADR-RES ovarian and in the assay on IGROV1 ovarian was over 100 µM throughout. Moreover, the TGI in the assay with MOLT-4 leukemia, in the assay with U251 CNS, in the assay with OVCAR-4 ovarian and with LOX IMVI melanoma was over 100 µM in each case.
With `CC1=NN(c2nc(N)nc(NS(=O)(=O)c3cc(C)c(Cl)cc3S)n2)C(C)(C)C1`, the TGI with NCI-H522 lung, in the assay with DU-145 prostate, with A549 NSCLC, in the assay on NCI-H23 lung, with NCI/ADR-RES ovarian and in the assay on IGROV1 ovarian was over 10 µM in each case. Also, the TGI in the assay on MOLT-4 leukemia, in the assay on U251 CNS, with OVCAR-4 ovarian and with LOX IMVI melanoma was over 10 µM throughout.
As to `CS(=O)(=O)N1CC(CCl)c2ccc(NO)cc21` (configuration not stated), the TGI in the assay with NCI-H522 lung was 16.3 µM; in the assay on DU-145 prostate it was over 100 µM; in the assay on A549 NSCLC, over 100 µM; with NCI-H23 lung, 18 µM; in the assay with NCI/ADR-RES ovarian it was 22.9 µM; with IGROV1 ovarian, 29 µM. For the same molecule, the TGI stood at 19 µM in the assay with MOLT-4 leukemia, 32.8 µM with U251 CNS, 40.7 µM with OVCAR-4 ovarian and 29.4 µM with LOX IMVI melanoma.
Regarding `C1CNOCCCONCCCNOCCCONC1`, the TGI in the assay on NCI-H522 lung, in the assay with DU-145 prostate, with A549 NSCLC, with NCI-H23 lung, in the assay with NCI/ADR-RES ovarian and with IGROV1 ovarian was over 100 µM each time. For the same molecule, the TGI with MOLT-4 leukemia, in the assay on U251 CNS, in the assay with OVCAR-4 ovarian and in the assay on LOX IMVI melanoma was over 100 µM each time.
